Molecules are shown by their SMILES.

The target of test [1] is CXXC5-Dvl interaction (PDZ domain of Dvl (dishevelled) protein / PTD-DBM-FITC). Description: CXXC5-Dvl binding inhibition, competition of PTD-DBM-FITC on plate-bound Dvl PDZ domain. The settings on record: purified Dvl PDZ domain 5 μg/mL, 10 μM PTD-DBM-FITC, compounds 0.001-100 μM, FITC fluorescence. As for the experimental part: 5 μg/mL of the purified PDZ domain ofDvl (dishevelled) protein was attached to the bottom of a 96-well black immunoplate and left in a chamber at 4° C. for one day. The next day, each well was washed with PBS and 10 μM PTD-DBM-FITC was added. After incubation at room temperature for 3 hours, each well was washed with PBS. Each well was treated with the indoline derivatives at various concentrations (100, 10, 1, 0.1, 0.01, and 0.001 μM) in 100 μL of PBS. After washing with a buffer, fluorescence was measured by FITC using a microplate reader. A competition binding curve showing the degree of CXXC5-Dvl PPI inhibition was constructed using the GraphPad Prism software, and the IC50 value was calculated. […] CK090), and the intermediate compound 5-cyanoindirubin as controls.

The subject of a further test is 3T3-L1 pre-adipocytes. Description: Inhibition of adipocyte differentiation and lipid accumulation, Oil Red O. Format: cell-based. The settings on record: Mus musculus, 192 h; 3T3-L1, compound 1 μM, MDI-induced differentiation for 8 days, Oil Red O eluted, absorbance 544 nm; read-out: lipid accumulation rate. The method, then: 3T3-L1 cells were seeded in a 6-well plate at a density of […] cells per well. The cells were grown to 100% confluency in Dulbecco's modified Eagle's medium (DMEM) supplemented with 10% bovine calf serum (BCS; GIBCO). Two days after reaching 100% confluency, differentiation was induced with or without treatment with the indoline compound at a concentration of 1 μM in DMEM containing 10% fetal bovine serum (FBS; GIBCO) and MDI (520 μM methylisobutylxanthine (IBMX; Sigma-Aldrich), 1 μM dexamethasone (Sigma-Aldrich), and 5 μM insulin (GIBCO)). On day 3, the medium was replaced with DMEM containing 10% FBS and 5 μM insulin with or without the indoline compound, and then with a fresh identical medium every 2 days. After differentiation for 8 days, the culture medium was removed, and the cells were washed with PBS and then fixed with 10% formaldehyde for 1 hour. After removing the 10% formaldehyde, the cells were washed thoroughly with distilled water. After that, 60% isopropanol was added and immediately then removed. After washing with distilled water, lipid droplets were stained with an Oil Red O dye solution for 20 minutes and then washed with distilled water. The cells were counterstained with Mayer's hematoxylin. Oil Red O images were visualized using a bright-field microscope (Nikon TE-2000U). To quantify the accumulated lipids, Oil Red O was eluted by adding isopropanol, and absorbance was measured spectrophotometrically at 544 nm using a multi-plate reader.
As A3051 (KY19382) and A3334, self-developed and synthesized materials were used. As BIO, or GSK 3 Inhibitor IX, also known as 6-bromoindirubin-3′-oxime, HY-10580 was purchased commercially.
In FIG. 2, the undifferentiated group (Un Diff) refers to undifferentiated adipocytes, or preadipocytes that had not been induced to differentiate, and the differentiated group (Diff) refers to fully differentiated adipocytes.

For test [2], the system named is lipid droplets / PPARγ in liver tissue. Description: Liver Oil Red O staining and PPARγ immunohistochemistry in MASH mice. Format: in vivo, C57BL/6N mice. The settings on record: 25 mg/kg/day orally for 4 weeks. The method, then: (§1) Five-week-old wild-type male C57BL/6N mice were purchased from Orient Bio Co., Ltd. They were allowed to acclimate to the laboratory environment for one week. Mice weighing 18-20 g on average were used in the experiment. To ensure ethical and scientific validity and efficient management of animal experiments, the experiment was conducted with the approval of the Institutional Review Board (IACUC-A-202205-1472-01) of Severance Hospital, Yonsei University College of Medicine.
(§2) The mice were divided into a normal group (NCD) and a high-fat diet group (HFD). The normal group (NCD) was fed a normal chow diet (NCD, Teklad Global 18% protein rodent diet), and the high-fat diet group (HFD) was fed a high-fat diet (HFD, D12492) in which fat accounted for 60% of the total calories, for 8 weeks.
(§3) Mice induced with metabolic dysfunction-associated steatohepatitis (MASH) (hereinafter, referred to as MASH or MASH group) were prepared by administering CCl4 intraperitoneally twice a week for 4 weeks after feeding the high-fat diet (HFD) for 8 weeks. The […] was diluted with corn oil at a ratio of 1:19 and injected at a dosage of 2 mL/kg. The normal group (NOD) was administered the same volume of physiological saline.
(§4) The animals were divided into 7 groups, each with 10 animals.
It was investigated whether the accumulation of triglycerides in the liver is suppressed effectively. For this purpose, liver tissue was extracted from each group, and it was prepared into 10-μm thick cryosections, which were then stained with Oil Red O. Details are as follows. After preparing the 7 groups, the animals were euthanized using carbon dioxide and the liver tissues were extracted. A certain area of the extracted liver tissue was cryosectioned to 10 μm thickness, fixed in 4% neutral paraformaldehyde for 20 minutes at room temperature, and washed with 70% isopropanol (Duksan Pure Chemicals). After staining with the Oil Red O (Sigma-Aldrich) reagent for 20 minutes, the sections were washed thoroughly three times with distilled water. The tissue was counterstained with Mayer's hematoxylin. Then, Oil Red O staining images were visualized using a bright-field microscope (Nikon TE-2000U).
After preparing the 7 groups, the animals were sacrificed using carbon dioxide and the liver tissues were extracted. The extracted tissues were fixed in 4% neutral paraformaldehyde and embedded in paraffin to prepare sections. The paraffin sections were cut to 4-μm thickness, deparaffinized, and then rehydrated. For antigen exposure, slides were autoclaved in a 10 mM sodium citrate buffer (pH 6.0). To block endogenous peroxidase activity prior to peroxidase IHC analysis, the tissues were incubated with 0.3% H2O2 for 10 minutes. The incubated sections were treated with phosphate-buffered saline (PBS) containing 10% NGS and 0.3% Tween-20 for 1 hour at room temperature, treated with primary antibodies of anti-PPARγ (1:50; Abcam), and incubated overnight at 4° C.
The sections treated with the primary antibodies were washed with PBS and incubated with biotinylated anti-mouse (1:400; Dako) or anti-rabbit (1:400; Dako) secondary antibodies for 1 hour at room temperature. The sections incubated with the secondary antibodies were stained with 3,3′-diaminobenzidine (DAB; Dako) for 3-7 minutes and then counterstained with Mayer's haematoxylin. All incubations were performed in a humid chamber. After the staining, images were taken and analyzed using a bright-field microscope (Nikon TE-2000U).

The subject of test [3] is mice induced with metabolic dysfunction-associated steatohepatitis (MASH). The test is described as follows: Liver fibrosis score from collagen staining (Picrosirius red) in MASH mice. The conditions noted are these: 25 mg/kg/day orally for 4 weeks, mean±SD, normal group 0, MASH group 3.11. Format: in vivo, C57BL/6N mice. As for the experimental part: as §1, §2, §3, §4
After preparing the 7 groups, the animals were euthanized using carbon dioxide and the liver tissues were extracted. The extracted tissues were fixed in 4% neutral paraformaldehyde and embedded in paraffin to prepare sections. The paraffin sections were cut to 4-μm thickness, deparaffinized, and then rehydrated. The hydrated sections were stained with a Weigert's iron hematoxylin solution for 8 minutes and then with Picrosirius red for 1 hour. Collagen fibers were stained red and nuclei were stained blue. The sections were photographed using a bright-field microscope (Nikon TE-2000U).
The main mechanism of nonalcoholic fatty liver disease is the induction of hepatic stellate cell activation, which induces collagen production and leads to liver fibrosis due to collagen accumulation. From the result of collagen staining (Picrosirius red) for observing the total amount of collagen deposition in Test Example 3-6, the liver fibrosis score was analyzed. Stages 2 to 3 were diagnosed as nonalcoholic fatty liver disease (MASH) (M. Brunt et al., 2005).
All quantitative data are presented as mean±standard deviation (SD). In each experiment, all measurements were made at least three times, and data were analyzed using the two-tailed, unpaired Student's t test. P values of <0.05 were considered statistically significant.

One may read the IC50 as the concentration that gives 50% inhibition. A low value points to greater potency in that assay. Turning to `N#Cc1ccc2c(c1)/C(=C1/Nc3ccccc3/C1=N\OCCN1CCOCC1)C(=O)N2` [Example 2, (2Z,3E)-3-((2-morpholinoethoxy)imino)-2′-oxo-[2,3′-biindolinylidene]-5′-carbonitrile], the IC50 in test [1] came to 8.61 nM. In addition, the activity at 1 µM with 3T3-L1 pre-adipocytes turned out to be 32.3%. Also, the “lipid droplet formation and lipid infiltration in liver, Oil Red O staining” value in test [2] is “the size and number of lipid droplets were significantly reduced”. Further, the “Degree of liver fibrosis (fibrosis score)” value (“Degree of liver fibrosis” below) in test [3] was 1.85.

`N#Cc1ccc2c(c1)/C(=C1/Nc3ccccc3/C1=N\OCCN1CCSCC1)C(=O)N2` [Example 3, (2Z,3E)-2′-oxo-3-((2-thiomorpholinoethoxy)imino)-[2,3′-biindolinylidene]-5′-carbonitrile] registered a concentration for half-maximal inhibition (IC50) in test [1] of 5.54 nM. Further, the activity at 1 µM in the test on 3T3-L1 pre-adipocytes came out at 28.9%. For the same compound, in test [2], the “lipid droplet formation and lipid infiltration in liver, Oil Red O staining” value is on record as “a significant effect of inhibiting lipid infiltration at a level similar to that of the normal group (NCD)”. For the same compound, in test [3], the “Degree of liver fibrosis” value came to 1.56.

In turn, `CN1CCN(CCO/N=C2/C(=C3/C(=O)Nc4ccc(C#N)cc43)Nc3ccccc32)CC1` [Example 4, (2Z,3E)-3-((2-(4-methylpiperazin-1-yl)ethoxy)imino)-2′-oxo-[2,3′-biindolinylidene]-5′-carbonitrile] gave an IC50 in test [1] of 20.9 nM. In addition, in the test with 3T3-L1 pre-adipocytes, the activity at 1 µM stood at 26%. For the same compound, the “lipid droplet formation and lipid infiltration in liver, Oil Red O staining” value in test [2] was “a significant effect of inhibiting lipid infiltration at a level similar to that of the normal group (NCD)”. The “Degree of liver fibrosis” value in test [3] and in test [3] (listed as CK004) was 0.67 each time.
